Data set [1] is described as follows: Toxicity against human MIA PaCa-2 cells in nutrient-rich medium (DMEM). Type of data set: cell-based.
The test system of data set [2] is MIA PaCa-2. Description: Preferential cytotoxicity against human MIA PaCa-2 cells in nutrient-deprived medium. Type of data set: functional.
Data set [3] deals with MIA PaCa-2. Description: Down regulation of autophagy marker expression in human MIA PaCa-2 cells assessed as reduction in Atg12 expression at 10 to 20 uM in nutrient-deprived medium by Western blot analysis. The following applies: dose 10-20 µM. Type of data set: functional, cell-based.
Data set [4] has as its system MIA PaCa-2. Description: Induction of cell death in human MIA PaCa-2 cells assessed as rounding of cells and membrane rupture at 5 uM incubated for 24 hrs in nutrient-deprived medium by ethidium bromide-acridine orange double staining based EVOS FL digital microscopy". Type of data set: functional.
Data set [5] in a line: Effect on total mTOR protein level in human MIA PaCa-2 cells at 10 to 20 uM incubated for 6 hrs in nutrient-deprived medium by Western blot analysis. Type of data set: toxicity, cell-based. To be noted: mia paca-2, 6 h, dose 10-20 µM.
For data set [6], the system named is MIA PaCa-2. Kind of data set: Induction of apoptosis in human MIA PaCa-2 cells assessed as down regulation of Bcl2 expression at 10 to 20 uM incubated for 24 hrs in nutrient-deprived medium by Western blot analysis. Type of data set: functional, cell-based. To be noted: dose 10-20 µM.
In data set [7] the test system is MIA PaCa-2. Description: Induction of cellular morphology changes in human MIA PaCa-2 cells assessed as rounding of cells and membrane rupture at 6.25 to 10 uM incubated for 24 hrs in nutrient-deprived medium by ethidium bromide-acridine orange double staining based EVOS FL digital microscopy". Type of data set: functional, cell-based. To be noted: dose 6.25-10 µM, DDE = dose-dependent effect.

Data set [8] deals with MIA PaCa-2. Description: Inhibition of cell migration of human MIA PaCa-2 cells assessed as open area level at 20 uM incubated for 24 hrs in nutrient-deprived medium by quantitative real-time cancer cell migration assay (reference value: 100%). Type of data set: functional. On the set-up: scale not given: the % may be the effect or the level left.
Data set [9] deals with MIA PaCa-2. Kind of data set: Induction of apoptosis in human MIA PaCa-2 cells assessed as down regulation of Bcl-xL expression at 10 to 20 uM incubated for 24 hrs in nutrient-deprived medium by Western blot analysis. Type of data set: functional, cell-based. The following applies: dose 10-20 µM.
The test system of data set [10] is MIA PaCa-2. Kind of data set: […] in human MIA PaCa-2 cells assessed as membrane blebbing , cell rupture and leakage of intracellular components into the medium at 20 uM incubated for 24 hrs in nutrient-deprived medium by Hoechst 33342 staining based assay". Type of data set: functional.
Data set [11] deals with Serine/threonine-protein kinase mTOR (Homo sapiens) (UniProt P42345). Kind of data set: Inhibition of mTOR S2481 phosphorylation in human MIA PaCa-2 cells at 10 to 20 uM incubated for 6 hrs in nutrient-deprived medium by Western blot analysis. Type of data set: cell-based. To be noted: dose 10-20 µM.
The test system of data set [12] is MIA PaCa-2. Description: Inhibition of cell migration of human MIA PaCa-2 cells assessed as open area level at 20 uM incubated for 48 hrs in nutrient-deprived medium by quantitative real-time cancer cell migration assay (reference value: 8.9%). Type of data set: functional. On the set-up: scale not given: the % may be the effect or the level left.
The test system of data set [13] is MIA PaCa-2. Description: Inhibition of AKT S473 phosphorylation in human MIA PaCa-2 cells at 10 to 20 uM incubated for 6 hrs in nutrient-deprived medium by Western blot analysis. The following applies: dose 10-20 µM. Type of data set: cell-based.
Data set [14] relates to MIA PaCa-2. Description: Down regulation of autophagy marker expression in human MIA PaCa-2 cells assessed as reduction in LC3-II expression at 10 to 20 uM in nutrient-deprived medium by Western blot analysis. To be noted: dose 10-20 µM. Type of data set: functional, cell-based.
The test system of data set [15] is MIA PaCa-2. Description: Induction of apoptosis in human MIA PaCa-2 cells assessed as down regulation of caspase-3 expression at 10 to 20 uM incubated for 24 hrs in nutrient-deprived medium by Western blot analysis. Type of data set: functional, cell-based. To be noted: dose 10-20 µM.
The test system of data set [16] is MIA PaCa-2. Kind of data set: Down regulation of autophagy marker expression in human MIA PaCa-2 cells assessed as reduction in Atg7 expression at 10 to 20 uM in nutrient-deprived medium by Western blot analysis. The following applies: dose 10-20 µM. Type of data set: functional, cell-based.
The test system of data set [17] is MIA PaCa-2. Kind of data set: Down regulation of autophagy marker expression in human MIA PaCa-2 cells assessed as reduction in Atg5 expression at 10 to 20 uM in nutrient-deprived medium by Western blot analysis. Type of data set: functional, cell-based. The following applies: dose 10-20 µM.
A short description of data set [18]: Effect on total AKt protein level in human MIA PaCa-2 cells at 10 to 20 uM incubated for 6 hrs in nutrient-deprived medium by Western blot analysis. Type of data set: toxicity, cell-based. To be noted: mia paca-2, 6 h, dose 10-20 µM.
Data set [19] deals with MIA PaCa-2. Kind of data set: Down regulation of autophagy marker expression in human MIA PaCa-2 cells assessed as reduction in LC3-I expression at 10 to 20 uM in nutrient-deprived medium by Western blot analysis. Type of data set: functional, cell-based. The following applies: dose 10-20 µM.

Experimental findings from ChEMBL document CHEMBL5120816, “Abietane diterpenes from Abies spectabilis and their anti-pancreatic cancer activity against the MIA PaCa-2 cell line” (Bioorg Med Chem Lett, 2022) are described below.

Calls of active or inactive are those of the source. The rule behind the calls is not given here.

For the compound `COc1cc(C[C@H]2C(=O)OC[C@@H]2Cc2ccc(OC)c(OC)c2)ccc1O` [ARCTIGENIN], the Activity entry in data set [1] is on record as “Non-Toxic”. Moreover, the PC50 in the data set with MIA PaCa-2 [2] was determined as 0.7 µM.
In the case of `CC(C)c1ccc2c(c1)CC[C@H]1[C@](C)(C(=O)O)CCC[C@]21C` [DEHYDROABIETIC ACID], in data set [1], the Activity entry is “Non-Toxic”. The compound also had a PC50 in the data set with MIA PaCa-2 [2] of 16.9 µM.
The matching figures for `C=C/C(C)=C\C[C@@H]1[C@@]2(C)CCCC(C)(C)[C@@H]2CC(=O)[C@@]1(C)O`: “Non-Toxic” and 15.2 µM.
The like results for `CC(C)[C@]1(O)C=C2C(=O)C[C@@H]3[C@](C)(CCC[C@@]3(C)C(=O)O)[C@H]2CC1` were, in that order, “Non-Toxic” and above 100 µM.
`CC(C)[C@@]1(O)C=C2C(=O)C[C@@H]3[C@](C)(CCC[C@@]3(C)C(=O)O)[C@H]2CC1`: the Activity result in data set [1] is on record as “Non-Toxic”. In the data set on MIA PaCa-2 [2], this compound had a PC50 of 70.7 µM.
In the case of `C[C@@]1(CO)CCC[C@]2(C)[C@H]3CCC(=O)C=C3CC[C@@H]12`, in data set [1], the Activity result was “Non-Toxic”. Further, the PC50 in the data set on MIA PaCa-2 [2] turned out to be 35.8 µM.
Regarding `CC(C)c1ccc2c(c1)CC[C@H]1[C@](C)(CO)CCC[C@]21C` [POMIFERIN A], the outcome in the data set with MIA PaCa-2 [3], in the data set on MIA PaCa-2 [6], in the data set with MIA PaCa-2 [9], in the data set on MIA PaCa-2 [10], in the data set with MIA PaCa-2 [14] and with MIA PaCa-2 [15] was Active. Besides, the result in the data set with MIA PaCa-2 [16], with MIA PaCa-2 [17] and in the data set on MIA PaCa-2 [19] was Active. In addition, the Activity in the data set on MIA PaCa-2 [4] was 100%; in data set [1] it was “Non-Toxic”; in data set [5], “Non-Toxic”; with MIA PaCa-2 [7] it was “Dde”; with MIA PaCa-2 [8] it was 64%; with MIA PaCa-2 [12], 30.8%. Besides, the Activity entry in data set [18] is “Non-Toxic”. The inhibition entry (in data set [11]; in the data set on MIA PaCa-2 [13]) was “Active” each time. Moreover, the PC50 in the data set on MIA PaCa-2 [2] was determined as 6.6 µM.
Regarding `C[C@]12CCC[C@@](C)(C(=O)O)[C@@H]1CCC1=CC(=O)CC[C@@H]12`, in data set [1], the Activity result is given as “Non-Toxic”. Moreover, in the data set on MIA PaCa-2 [2], the PC50 came to 55.5 µM.
The matching figures for `CC(C)[C@@]1(O)C=C2C(=O)C[C@H]3[C@](C)(COC(=O)CCC(=O)O)CCC[C@]3(C)[C@H]2CC1`: “Non-Toxic” and 82.9 µM.
The matching figures for `CC(C)C1=CC[C@H]2C(=C1)C(=O)C[C@@H]1[C@]2(C)CCC[C@@]1(C)C(=O)O` [ABIESADINE E]: “Non-Toxic” and 42.3 µM.
